Among the data in patent US20230146675A1, “PYRIMIDO[5,4-d]PYRIMIDINE DERIVATIVES AS ENT INHIBITORS FOR THE TREATMENT OF CANCERS, AND COMBINATION THEREOF WITH ADENOSINE RECEPTOR ANTAGONISTS” (ITEOS BELGIUM SA, priority 2020, published 2023) are IC50 values, retold here.

The experiment deals with T1, human ENT1 (Homo sapiens, UniProt Q99808).
T1 sequence (Q99808 1-456): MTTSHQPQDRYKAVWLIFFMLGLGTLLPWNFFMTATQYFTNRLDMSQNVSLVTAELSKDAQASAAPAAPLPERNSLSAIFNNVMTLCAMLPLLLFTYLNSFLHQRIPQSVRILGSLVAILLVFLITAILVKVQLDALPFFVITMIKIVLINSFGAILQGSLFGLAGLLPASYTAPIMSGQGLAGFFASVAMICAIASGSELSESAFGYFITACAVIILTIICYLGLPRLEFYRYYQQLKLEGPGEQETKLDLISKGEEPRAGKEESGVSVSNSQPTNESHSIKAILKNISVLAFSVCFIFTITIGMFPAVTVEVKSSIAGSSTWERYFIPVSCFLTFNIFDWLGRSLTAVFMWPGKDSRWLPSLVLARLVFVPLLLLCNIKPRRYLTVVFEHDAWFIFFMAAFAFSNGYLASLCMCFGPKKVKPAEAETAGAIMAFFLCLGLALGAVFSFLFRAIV
Put plainly: ENT1 binding assay (competition with Sahenta-DY647 on JAR cells). Set-up: JAR cells expressing ENT1 were bought from ATCC; host or cells: JAR cells. The settings on record: binned IC50. As for the experimental part: Purpose. […] By measuring the fluorescence at the end of the assay we could assess the binding potency of the compounds of the present invention.
JAR cells were resuspended in the described buffer. Compounds of the present invention and Sahenta-DY647 were diluted 200× in the described buffer.
The total volume of the reaction was 100 μL (50 μL of cells, 25 μL of the compounds of the present invention and 25 μL of Sahenta-DY647) in a 96 well plate, U-bottom (Greiner®, #650-180). The plates were washed 2× by centrifugation (4 min, 400 rcf at 4° C.) in the same buffer.
Usually IC50 stands for the point on the concentration scale where inhibition reaches its midpoint. A high value points to weaker potency. In the case of `COCCN(CCOC)c1nc(N2CCC(OC)CC2)c2nc(N(CCOC)CCOC)nc(N3CCC(C#N)CC3)c2n1` [Compound 90, 1-(2,6-bis(bis(2-methoxyethyl)amino)-8-(4-methoxypiperidin-1-yl)pyrimido[5,4-d]pyrimidin-4-yl)piperidine-4-carbonitrile], the IC50 fell in the range of 100 to 500 nM. For `COCCN(CCOC)c1nc(N2CCN(c3nnc(C)o3)CC2)c2nc(N(CCOC)CCOC)nc(N3CCC(OC)CC3)c2n1` [Compound 135, N2,N2,N6,N6-tetrakis(2-methoxyethyl)-4-(4-methoxypiperidin-1-yl)-8-(4-(5-methyl-1,3,4-oxadiazol-2-yl)piperazin-1-yl)pyrimido[5,4-d]pyrimidine-2,6-diamine] the value was 500 to 1000 nM; for `CCOC(=O)N1CCN(c2nc(N3CCC(OC)CC3)c3nc(N(CCOC)CCOC)nc(N4CCC(OC)CC4)c3n2)CC1` [Compound 31, ethyl 4-(6-(bis(2-methoxyethyl)amino)-4,8-bis(4-methoxypiperidin-1-yl)pyrimido[5,4-d]pyrimidin-2-yl)piperazine-1-carboxylate], 500 to 1000 nM; for `COCCN(CCOC)c1nc(N2CCN(c3ncn(C)n3)CC2)c2nc(N(CCOC)CCOC)nc(N(C)Cc3cccc(S(N)(=O)=O)c3)c2n1` [Compound 248, 3-(((2,6-bis(bis(2-methoxyethyl)amino)-8-(4-(1-methyl-1H-1,2,4-triazol-3-yl)piperazin-1-yl)pyrimido[5,4-d]pyrimidin-4-yl)(methyl)amino)methyl)benzenesulfonamide], 100 to 500 nM. `COCCN(CCOC)c1nc(N2CCN(c3ccc(C#N)cn3)CC2)c2nc(N(CCOC)CCOC)nc(N3CCC(OC)CC3)c2n1` [Compound 124, 6-(4-(2,6-bis(bis(2-methoxyethyl)amino)-8-(4-methoxypiperidin-1-yl)pyrimido[5,4-d]pyrimidin-4-yl)piperazin-1-yl)nicotinonitrile]: the 50% inhibitory concentration (IC50) lay in the range of 100 to 500 nM.

In the case of `COCCN(CCOC)c1nc(N2CCN(C)C(=O)C2)c2nc(N(CCOC)CCOC)nc(NCc3cccc(S(N)(=O)=O)c3)c2n1` [Compound 204, 3-(((2,6-bis(bis(2-methoxyethyl)amino)-8-(4-methyl-3-oxopiperazin-1-yl)pyrimido[5,4-d]pyrimidin-4-yl)amino)methyl)benzenesulfonamide], the IC50 is 100 to 500 nM. The compound `COCCN(CCOC)c1nc(N2CCN(C)C(=O)C2)c2nc(N3CCNC(=O)C3)nc(N3CCC(OC)CC3)c2n1` [Compound 278, 4-(2-(bis(2-methoxyethyl)amino)-8-(4-methoxypiperidin-1-yl)-6-(3-oxopiperazin-1-yl)pyrimido[5,4-d]pyrimidin-4-yl)-1-methylpiperazin-2-one] registered an IC50 of 100 to 500 nM. As for `COCCN(CCOC)c1nc(N2CCC(OC)CC2)c2nc(N(CCOC)CCOC)nc(OCc3ccc(Cl)c(Cl)c3)c2n1` [Compound 154, 4-((3,4-dichlorobenzyl)oxy)-N2,N2,N6,N6-tetrakis(2-methoxyethyl)-8-(4-methoxypiperidin-1-yl)pyrimido[5,4-d]pyrimidine-2,6-diamine], the figure is less than 100 nM. As for `COCCN(CCOC)c1nc(N2CCN(C)C(=O)C2)c2nc(N3CCn4ccnc4C3)nc(N3CCC(OC)CC3)c2n1` [Compound 296, 4-(2-(bis(2-methoxyethyl)amino)-6-(5,6-dihydroimidazo[1,2-a]pyrazin-7(8H)-yl)-8-(4-methoxypiperidin-1-yl)pyrimido[5,4-d]pyrimidin-4-yl)-1-methylpiperazin-2-one], the figure is 100 to 500 nM; as for `COCCN(Cc1ccc(C(=O)O)c(C)c1)c1nc(N2CCN(C)C(=O)C2)c2nc(N(CCOC)CCOC)nc(N3CCC(OC)CC3)c2n1` [Compound 338, 4-(((6-(bis(2-methoxyethyl)amino)-8-(4-methoxypiperidin-1-yl)-4-(4-methyl-3-oxopiperazin-1-yl)pyrimido[5,4-d]pyrimidin-2-yl)(2-methoxyethyl)amino)methyl)-2-methylbenzoic acid], less than 100 nM.

Take `COCCN(CCOC)c1nc(N2CCc3oncc3C2)c2nc(N(CCOC)CCOC)nc(N3CCN(C)C(=O)C3)c2n1` [Compound 261, 4-(2,6-bis(bis(2-methoxyethyl)amino)-8-(6,7-dihydroisoxazolo[4,5-c]pyridin-5(4H)-yl)pyrimido[5,4-d]pyrimidin-4-yl)-1-methylpiperazin-2-one]: the IC50 is less than 100 nM. For `COCCN(Cc1ccc(OC)c(OC)c1OC)c1nc(N2CCN(C)C(=O)C2)c2nc(N(CCO)CCO)nc(N3CCC(OC)CC3)c2n1` [Compound 305, 4-(6-(bis(2-hydroxyethyl)amino)-2-((2-methoxyethyl)(2,3,4-trimethoxybenzyl)amino)-8-(4-methoxypiperidin-1-yl)pyrimido[5,4-d]pyrimidin-4-yl)-1-methylpiperazin-2-one] the value was less than 100 nM; for `COCCN(CCOC)c1nc(N2CC(O)(C(F)(F)F)C2)c2nc(N(CCOC)CCOC)nc(N3CCS(=O)(=O)CC3)c2n1` [Compound 192, 4-(2,6-bis(bis(2-methoxyethyl)amino)-8-(3-hydroxy-3-(trifluoromethyl)azetidin-1-yl)pyrimido[5,4-d]pyrimidin-4-yl)thiomorpholine 1,1-dioxide], 100 to 500 nM.

`COCCN(CCOC)c1nc(N2CCC(OC)CC2)c2nc(N(CCOC)CCOC)nc(NCCCNS(C)(=O)=O)c2n1` [Compound 180, N-(3-((2,6-bis(bis(2-methoxyethyl)amino)-8-(4-methoxypiperidin-1-yl)pyrimido[5,4-d]pyrimidin-4-yl)amino)propyl)methanesulfonamide] displayed a half-inhibitory concentration (IC50) of 500 to 1000 nM. For the compound `COCCCCNc1nc(N(CCOC)CCOC)nc2c(N3CCC(OC)CC3)nc(N(CCOC)CCOC)nc12` [Compound 181, N4-(4-methoxybutyl)-N2,N2,N6,N6-tetrakis(2-methoxyethyl)-8-(4-methoxypiperidin-1-yl)pyrimido[5,4-d]pyrimidine-2,4,6-triamine], the IC50 lay in the range of 500 to 1000 nM. As for `COCCN(CCOC)c1nc(N2CCN(c3ncn(C)n3)CC2)c2nc(N(CCOC)CCOC)nc(N(C)Cc3cccc(Cl)c3)c2n1` [Compound 242, N4-(3-chlorobenzyl)-N2,N2,N6,N6-tetrakis(2-methoxyethyl)-N4-methyl-8-(4-(1-methyl-1H-1,2,4-triazol-3-yl)piperazin-1-yl)pyrimido[5,4-d]pyrimidine-2,4,6-triamine], the figure is 500 to 1000 nM; as for `COCCN(CCOC)c1nc(N2CCC(OC)CC2)c2nc(N(CCOC)CCOC)nc(NCCCO)c2n1` [Compound 175, 3-((2,6-bis(bis(2-methoxyethyl)amino)-8-(4-methoxypiperidin-1-yl)pyrimido[5,4-d]pyrimidin-4-yl)amino)propan-1-ol], 500 to 1000 nM; as for `COCCN(CCOC)c1nc(N2CC(O)(C(F)(F)F)C2)c2nc(N(CCOC)CCOC)nc(N3CCn4ncnc4C3)c2n1` [Compound 193, 1-(2,6-bis(bis(2-methoxyethyl)amino)-8-(5,6-dihydro-[1,2,4]triazolo[1,5-a]pyrazin-7(8H)-yl)pyrimido[5,4-d]pyrimidin-4-yl)-3-(trifluoromethyl)azetidin-3-ol], 100 to 500 nM.

On to `COCCN(CCOC)c1nc(N2CCN(C)C(=O)C2)c2nc(N(CCOC)CCOC)nc(NCc3cccc(OC)c3)c2n1` [Compound 209, 4-(2,6-bis(bis(2-methoxyethyl)amino)-8-((3-methoxybenzyl)amino)pyrimido[5,4-d]pyrimidin-4-yl)-1-methylpiperazin-2-one], for which the half-inhibitory concentration (IC50) is less than 100 nM. For the compound `COCCN(CCOC)c1nc(N2CCC(OC)CC2)c2nc(N3CCN(c4ncccc4N)CC3)nc(N3CCN(C)C(=O)C3)c2n1` [Compound 293, 4-(2-(4-(3-aminopyridin-2-yl)piperazin-1-yl)-6-(bis(2-methoxyethyl)amino)-8-(4-methoxypiperidin-1-yl)pyrimido[5,4-d]pyrimidin-4-yl)-1-methylpiperazin-2-one], the IC50 was 100 to 500 nM. `COCCN(CCOC)c1nc(N2CCn3nccc3C2)c2nc(N(CCOC)CCOC)nc(N3CCN(C)C(=O)C3)c2n1` [Compound 260, 4-(2,6-bis(bis(2-methoxyethyl)amino)-8-(6,7-dihydropyrazolo[1,5-a]pyrazin-5(4H)-yl)pyrimido[5,4-d]pyrimidin-4-yl)-1-methylpiperazin-2-one] registered an IC50 of less than 100 nM. On to `COCCN(CCOC)c1nc(N2CCN(C)C(=O)C2)c2nc(N(CCO)CCOC)nc(N3CCC(OC)CC3)c2n1` [Compound 276, 4-(2-(bis(2-methoxyethyl)amino)-6-((2-hydroxyethyl)(2-methoxyethyl)amino)-8-(4-methoxypiperidin-1-yl)pyrimido[5,4-d]pyrimidin-4-yl)-1-methylpiperazin-2-one], for which the half-inhibitory concentration (IC50) fell in the range of 100 to 500 nM. `COCCN(CCOC)c1nc(N2CCN(C)C(=O)C2)c2nc(N(CCOC)CCOC)nc(N(C)Cc3cccc(Cl)c3)c2n1` [Compound 234, 4-(2,6-bis(bis(2-methoxyethyl)amino)-8-((3-chlorobenzyl)(methyl)amino)pyrimido[5,4-d]pyrimidin-4-yl)-1-methylpiperazin-2-one]: the IC50 was less than 100 nM.
